The results in this text go back to US6281354A, “Analogs of duocarmycin and cc-1065” (The Scripps Research Institute, priority 1999, dated 2001).

For the test, the system named is duplex DNA (w794, w836, c988, c820, c1346). It counts as biochemical, SV40. To be noted: for sequence preference at the alkylation site: consensus alkylation sequence; for concentration at which DNA is alkylated / more efficient DNA alkylation than (+)-N--BOC-DSA: natural enantiomers.

On to `COC(=O)c1cc2c([nH]1)C(=O)C=C1N(C(C)=O)CC3CC123` (centres unmarked) [compound 40, Methyl 2-Acetyl-1,2,8,8a-tetrahydrocyclopropa[c]pyrrolo[3,2-e]indol-4-one-6-carboxylate], for which the “sequence preference at the alkylation site” value (“sequence preference” for short) is 5'-AA>5'-TA, the “concentration at which DNA is alkylated” value was 10^-3 M, the “more efficient DNA alkylation than (+)-N--BOC-DSA” value is given as “approximately 10 ×” and the “unnatural enantiomer less effective at DNA alkylation than natural enantiomer” value is “approximately 10 ×”.
As for `COC(=O)c1cc2c([nH]1)C(=O)C=C1N(C(=O)OC(C)(C)C)CC3CC123` (centres unmarked) [N--BOC-DSA], the “AT-rich adenine N3 alkylation selectivity (size of site)” value was 2 base-pair and the “sequence preference” value is 5'-AA>5'-TA. Further, under “25-37° C.”, the “reaction time required for substantial or complete DNA alkylation” value fell in the range of 2 to 7 days.
As to `COC(=O)c1cc2c([nH]1)C(=O)C=C1N(C(=O)c3cc4cc(OC)c(OC)c(OC)c4[nH]3)C[C@@H]3C[C@@]123` [ent-(-)-duocarmycin SA, reference compound], the “AT-rich adenine N3 alkylation selectivity (size of site)” value is 3.5 base-pair.
Same read-out and setting: for `COC(=O)c1cc2c([nH]1)C(=O)C=C1N(C(=O)OC(C)(C)C)C[C@H]3C[C@]123` [(+)-N--BOC-DSA] the value was 2 base-pair.
Still for that read-out and setting: for `COC(=O)c1cc2c([nH]1)C(=O)C=C1N(C(=O)OC(C)(C)C)C[C@@H]3C[C@@]123` [ent-(-)-N--BOC-DSA] the value was 2 base-pair.
Consider `COC(=O)c1cc2c([nH]1)C(=O)C=C1N(C(=O)OC)CC3CC123` (centres unmarked) [compound 41, Methyl 2-(Methoxycarbonyl)-1,2,8,8a-tetrahydrocyclopropa[c]pyrrolo[3,2-e]indol-4-one-6-carboxylate], for which the “sequence preference” value is listed as 5'-AA>5'-TA, the “concentration at which DNA is alkylated” value is reported as 10^-3 M, the “more efficient DNA alkylation than (+)-N--BOC-DSA” value is “approximately 10 ×” and the “unnatural enantiomer less effective at DNA alkylation than natural enantiomer” value is given as “approximately 10 ×”.
